As usually defined, the IC50 is the concentration needed to halve the response being measured. One may read the AUC(0-inf) as the area under the concentration-time curve extrapolated to infinity. Low values mean low exposure, high ones high exposure. Usually AUC(0-t) stands for exposure summed from dosing to a finite time, without extrapolation to infinity. A low value points to less exposure. By half-life is commonly meant how long it takes for the measured level to halve. Read a low half-life as fast loss. As usually defined, the bioavailability is the share of a dose that reaches the circulation, judged against a reference dose that is usually intravenous. The low end stands for poor availability, the high end for good availability. For orientation: clearance means the volume of plasma or blood freed of the substance per unit of time. Higher therefore signals efficient removal.

Chain of Fibroblast growth factor receptor 2 (P21802 whole entry): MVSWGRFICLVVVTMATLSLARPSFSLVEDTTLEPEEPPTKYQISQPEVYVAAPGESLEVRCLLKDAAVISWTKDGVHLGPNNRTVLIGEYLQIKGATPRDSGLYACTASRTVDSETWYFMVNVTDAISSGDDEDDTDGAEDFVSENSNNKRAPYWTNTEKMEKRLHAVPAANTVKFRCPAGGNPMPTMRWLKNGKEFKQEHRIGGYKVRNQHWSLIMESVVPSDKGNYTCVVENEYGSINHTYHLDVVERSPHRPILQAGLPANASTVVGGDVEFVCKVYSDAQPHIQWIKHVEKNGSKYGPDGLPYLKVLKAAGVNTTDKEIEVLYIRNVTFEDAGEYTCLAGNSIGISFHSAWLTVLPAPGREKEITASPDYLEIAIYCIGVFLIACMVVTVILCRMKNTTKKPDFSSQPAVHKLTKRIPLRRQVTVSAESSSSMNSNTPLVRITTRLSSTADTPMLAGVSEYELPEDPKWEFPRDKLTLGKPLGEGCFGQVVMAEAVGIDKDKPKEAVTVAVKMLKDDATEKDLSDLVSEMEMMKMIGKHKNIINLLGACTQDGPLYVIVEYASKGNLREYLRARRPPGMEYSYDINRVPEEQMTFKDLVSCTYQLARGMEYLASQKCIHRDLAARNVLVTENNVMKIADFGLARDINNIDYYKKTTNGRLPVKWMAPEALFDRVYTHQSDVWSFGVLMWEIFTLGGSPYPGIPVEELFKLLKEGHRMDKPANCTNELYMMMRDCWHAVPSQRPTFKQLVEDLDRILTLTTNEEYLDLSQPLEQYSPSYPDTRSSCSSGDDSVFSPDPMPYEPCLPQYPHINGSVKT
Chain of Fibroblast growth factor receptor 3 (P22607 whole entry): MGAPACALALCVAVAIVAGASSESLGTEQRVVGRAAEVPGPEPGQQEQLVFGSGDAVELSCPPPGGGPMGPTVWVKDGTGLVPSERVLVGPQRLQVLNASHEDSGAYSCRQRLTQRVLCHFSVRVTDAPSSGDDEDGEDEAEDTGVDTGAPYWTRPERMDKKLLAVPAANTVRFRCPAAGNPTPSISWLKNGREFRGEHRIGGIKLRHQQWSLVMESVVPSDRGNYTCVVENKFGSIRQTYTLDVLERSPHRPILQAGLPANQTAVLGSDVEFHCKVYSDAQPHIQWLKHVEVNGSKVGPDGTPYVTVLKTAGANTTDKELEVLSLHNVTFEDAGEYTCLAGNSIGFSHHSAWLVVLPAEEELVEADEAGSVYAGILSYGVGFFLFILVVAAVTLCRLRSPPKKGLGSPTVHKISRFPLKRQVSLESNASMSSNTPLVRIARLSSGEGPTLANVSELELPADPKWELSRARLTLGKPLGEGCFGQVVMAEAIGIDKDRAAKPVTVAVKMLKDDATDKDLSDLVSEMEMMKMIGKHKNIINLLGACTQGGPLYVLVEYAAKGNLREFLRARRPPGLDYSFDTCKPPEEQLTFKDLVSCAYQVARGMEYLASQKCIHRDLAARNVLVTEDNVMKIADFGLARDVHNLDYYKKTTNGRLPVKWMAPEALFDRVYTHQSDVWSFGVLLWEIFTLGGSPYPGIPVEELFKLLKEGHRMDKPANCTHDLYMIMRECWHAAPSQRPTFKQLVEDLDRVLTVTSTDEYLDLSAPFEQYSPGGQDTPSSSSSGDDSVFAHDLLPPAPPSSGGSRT
Chain of Vascular endothelial growth factor receptor 2 (P35968 whole entry): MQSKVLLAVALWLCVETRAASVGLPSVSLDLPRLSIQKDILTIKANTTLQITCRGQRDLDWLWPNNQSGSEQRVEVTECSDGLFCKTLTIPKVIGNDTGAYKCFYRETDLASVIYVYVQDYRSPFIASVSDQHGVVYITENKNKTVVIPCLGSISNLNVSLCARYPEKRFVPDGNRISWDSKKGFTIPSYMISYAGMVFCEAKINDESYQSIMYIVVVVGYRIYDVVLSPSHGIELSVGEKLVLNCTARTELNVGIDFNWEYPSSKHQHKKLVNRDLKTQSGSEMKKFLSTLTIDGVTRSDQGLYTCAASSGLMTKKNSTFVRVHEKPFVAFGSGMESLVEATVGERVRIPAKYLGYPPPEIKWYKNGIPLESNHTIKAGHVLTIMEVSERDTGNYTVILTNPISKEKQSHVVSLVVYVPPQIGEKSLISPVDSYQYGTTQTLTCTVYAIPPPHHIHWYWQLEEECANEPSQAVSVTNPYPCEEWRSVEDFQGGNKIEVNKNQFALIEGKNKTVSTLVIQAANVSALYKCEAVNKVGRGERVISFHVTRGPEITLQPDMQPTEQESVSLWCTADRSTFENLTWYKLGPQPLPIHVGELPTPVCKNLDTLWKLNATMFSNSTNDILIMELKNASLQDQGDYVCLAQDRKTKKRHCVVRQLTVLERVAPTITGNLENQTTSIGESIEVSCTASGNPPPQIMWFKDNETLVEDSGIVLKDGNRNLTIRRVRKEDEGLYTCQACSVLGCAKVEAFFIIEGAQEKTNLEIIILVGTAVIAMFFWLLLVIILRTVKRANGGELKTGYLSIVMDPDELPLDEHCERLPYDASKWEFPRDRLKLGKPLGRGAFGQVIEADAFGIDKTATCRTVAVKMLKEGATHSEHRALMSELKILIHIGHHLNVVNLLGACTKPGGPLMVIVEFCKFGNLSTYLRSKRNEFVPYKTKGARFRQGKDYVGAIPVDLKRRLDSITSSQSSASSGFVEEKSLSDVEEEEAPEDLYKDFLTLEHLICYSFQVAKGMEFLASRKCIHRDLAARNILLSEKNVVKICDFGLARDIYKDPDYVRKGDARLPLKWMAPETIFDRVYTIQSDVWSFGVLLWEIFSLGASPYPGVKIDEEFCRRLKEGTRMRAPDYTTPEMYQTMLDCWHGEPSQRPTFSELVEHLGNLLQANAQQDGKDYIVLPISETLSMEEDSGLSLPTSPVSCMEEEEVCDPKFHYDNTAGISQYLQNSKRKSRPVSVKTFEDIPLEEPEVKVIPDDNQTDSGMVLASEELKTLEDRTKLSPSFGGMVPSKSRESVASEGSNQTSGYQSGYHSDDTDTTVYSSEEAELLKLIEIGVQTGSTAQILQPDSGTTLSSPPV

Test system in the first data set: not listed separately
Put plainly: Antiproliferative activity against human UM-UC-14 cells expressing FGFR3 after 72 hrs. The note with it: UMUC14, 72 h. In kind it is functional, cell-based.
`CNC(=O)c1cccc2cc(Oc3ccnc(NC(=O)c4ccc(N5CCN(C)CC5)cc4)c3)ccc12` returned an IC50 of 1.7 nM.
On the same count and under the same terms, to `COc1cc(CCc2cc(NC(=O)c3ccc(N4C[C@@H](C)N[C@@H](C)C4)cc3)n[nH]2)cc(OC)c1` [FEXAGRATINIB] belongs 26.9 nM.

Test system in a further data set: not listed separately
Put plainly: AUCinfinity in Sprague-Dawley rat at 1 mg/kg, iv by LC-MS/MS analysis. In kind it is ADME, organism-based. Also on record: dose 1 mg/kg, route intravenous, time infinity. The note with it: in vivo.
Take `CNC(=O)c1cccc2cc(Oc3ccnc(NC(=O)c4ccc(N5CCN(C)CC5)cc4)c3)ccc12`: the AUC(0-inf) amounted to 49 ng·h/mL.

The test system of another data set is KG-1. Put plainly: Antiproliferative activity against human KG1 cells expressing FGFR1 after 72 hrs. The conditions noted are these: KG-1, 72 h. In kind it is functional, cell-based.
In the case of `CNC(=O)c1cccc2cc(Oc3ccnc(NC(=O)c4ccc(N5C[C@@H](C)N[C@@H](C)C5)cc4C)c3)ccc12`, the IC50 was above 1000 nM.
On the same count and under the same terms, to `C=CC(=O)Nc1ccc(C(=O)Nc2cc(Oc3ccc4c(C(=O)NC)cccc4c3)ccn2)cc1` belongs 369 nM; to `CNC(=O)c1cccc2cc(Oc3ccnc(NC(=O)c4ccc(N5CCNC(C)C5)cc4)c3)ccc12` (configuration not stated), below 4.1 nM.
On the same count and under the same terms, to `CNC(=O)c1cccc2cc(Oc3ccnc(NC(=O)c4ccc(N5CCN(C)CC5)cc4)c3)ccc12` belongs below 0.5 nM; to `COC(=O)c1cccc2cc(Oc3ccnc(NC(=O)c4ccc(N5C[C@@H](C)N[C@@H](C)C5)cc4)c3)ccc12`, 159 nM; to `CNC(=O)c1cccc2cc(Oc3ccnc(NC(=O)c4ccc(OCC5(N)CC5)cc4)c3)ccc12`, 54.5 nM.
The same measure, in the same setting: to `CNC(=O)c1cccc2cc(Oc3ccnc(NC(=O)c4ccc(NCC5(O)CCOCC5)cc4)c3)ccc12` belongs below 4.1 nM; to `COc1cc(CCc2cc(NC(=O)c3ccc(N4C[C@@H](C)N[C@@H](C)C4)cc3)n[nH]2)cc(OC)c1` [FEXAGRATINIB], 1.9 to 8.7 nM.
`CCNC(=O)Nc1cccc2cc(Oc3ccnc(NC(=O)c4ccc(N5C[C@@H](C)N[C@@H](C)C5)cc4)c3)ccc12` returned an IC50 of 504 nM.
`CNC(=O)c1cccc2cc(Oc3ccnc(NC(=O)c4ccc(OCCN5CC(F)C5)cc4)c3)ccc12` yielded an IC50 of 5.1 nM.
Take `CNC(=O)c1cccc2cc(Oc3ccnc(NC(=O)c4ccc(N5CCN(CCO)CC5)cc4)c3)ccc12`: the IC50 worked out at 5.8 nM.
`CNC(=O)c1cccc2cc(Oc3ccnc(NC(=O)c4ccc(N5CC(C)OC(C)C5)cc4)c3)ccc12` (configuration not stated): the IC50 stood at 154 nM.
Same read-out and setting: to `CNC(=O)c1cccc2cc(Oc3ccnc(NC(=O)c4cnn(CCO)c4)c3)ccc12` belongs 278 nM; to `CNC(=O)c1cccc2cc(Oc3ccnc(NC(=O)c4ccc(C5CCNCC5)cc4)c3)ccc12`, 72.2 nM.
The same measure, in the same setting: to `CNC(=O)c1cccc2cc(Oc3ccnc(NC(=O)c4cnc(N5C[C@@H](C)N[C@@H](C)C5)nc4)c3)ccc12` belongs 30.3 nM; to `CCNC(=O)Nc1ccc(Oc2ccnc(NC(=O)c3ccc(N4C[C@@H](C)N[C@@H](C)C4)cc3)c2)c(OC)c1`, 548 nM.

A further data set has as its system RT-112. Put plainly: Antiproliferative activity against human RT112 cells expressing FGFR3 after 72 hrs. In kind it is functional, cell-based. The conditions noted are these: RT-112, 72 h.
`CNC(=O)c1cccc2cc(Oc3ccnc(NC(=O)c4ccc(N5CCN(C)CC5)cc4)c3)ccc12` returned an IC50 of 52.6 nM.
Same read-out and setting: to `COc1cc(CCc2cc(NC(=O)c3ccc(N4C[C@@H](C)N[C@@H](C)C4)cc3)n[nH]2)cc(OC)c1` [FEXAGRATINIB] belongs 83.8 nM.

Another data set concerns the target Fibroblast growth factor receptor 2 (Homo sapiens, UniProt P21802). The data set is described as follows: Inhibition of recombinant FGFR2 (unknown origin) using poly (Glu, Tyr) 4:1 as substrate after 60 mins by ELISA based spectrophotometric method.
Conditions: not given
A general note: In an ELISA, binding on a coated surface is turned into a signal by an enzyme label.
On to `CNC(=O)c1cccc2cc(Oc3ccnc(NC(=O)c4ccc(N5CCN(C)CC5)cc4)c3)ccc12`, for which the IC50 stood at 4.5 nM.

In a further data set the test system is BaF3. Put plainly: Antiproliferative activity against mouse BAF3 cells expressing VEGFR2 after 72 hrs. Type of data set: functional, cell-based. The note with it: BaF3, 72 h.
`CNC(=O)c1cccc2cc(Oc3ccnc(NC(=O)c4ccc(N5CCN(C)CC5)cc4)c3)ccc12` yielded a concentration for half-maximal inhibition (IC50) below 1.5 nM.
The compound `COc1cc(CCc2cc(NC(=O)c3ccc(N4C[C@@H](C)N[C@@H](C)C4)cc3)n[nH]2)cc(OC)c1` [FEXAGRATINIB] gave a half-maximal inhibitory concentration (IC50) of 222 nM.

Another data set deals with SNU-16. The data set is described as follows: Antiproliferative activity against human SNU16 cells expressing FGFR2 after 72 hrs. In kind it is functional, cell-based. The conditions noted are these: SNU-16, 72 h.
In the case of `CNC(=O)c1cccc2cc(Oc3ccnc(NC(=O)c4ccc(N5CCN(C)CC5)cc4)c3)ccc12`, the IC50 was below 0.5 nM.
`COc1cc(CCc2cc(NC(=O)c3ccc(N4C[C@@H](C)N[C@@H](C)C4)cc3)n[nH]2)cc(OC)c1` [FEXAGRATINIB] yielded an IC50 of 6.2 nM.

The target in a further data set is Fibroblast growth factor receptor 1 (Homo sapiens, UniProt P11362). The data set is described as follows: Inhibition of recombinant FGFR1 (unknown origin) using poly (Glu, Tyr) 4:1 as substrate after 60 mins by ELISA based spectrophotometric method.
Chain of Fibroblast growth factor receptor 1 (P11362 whole entry): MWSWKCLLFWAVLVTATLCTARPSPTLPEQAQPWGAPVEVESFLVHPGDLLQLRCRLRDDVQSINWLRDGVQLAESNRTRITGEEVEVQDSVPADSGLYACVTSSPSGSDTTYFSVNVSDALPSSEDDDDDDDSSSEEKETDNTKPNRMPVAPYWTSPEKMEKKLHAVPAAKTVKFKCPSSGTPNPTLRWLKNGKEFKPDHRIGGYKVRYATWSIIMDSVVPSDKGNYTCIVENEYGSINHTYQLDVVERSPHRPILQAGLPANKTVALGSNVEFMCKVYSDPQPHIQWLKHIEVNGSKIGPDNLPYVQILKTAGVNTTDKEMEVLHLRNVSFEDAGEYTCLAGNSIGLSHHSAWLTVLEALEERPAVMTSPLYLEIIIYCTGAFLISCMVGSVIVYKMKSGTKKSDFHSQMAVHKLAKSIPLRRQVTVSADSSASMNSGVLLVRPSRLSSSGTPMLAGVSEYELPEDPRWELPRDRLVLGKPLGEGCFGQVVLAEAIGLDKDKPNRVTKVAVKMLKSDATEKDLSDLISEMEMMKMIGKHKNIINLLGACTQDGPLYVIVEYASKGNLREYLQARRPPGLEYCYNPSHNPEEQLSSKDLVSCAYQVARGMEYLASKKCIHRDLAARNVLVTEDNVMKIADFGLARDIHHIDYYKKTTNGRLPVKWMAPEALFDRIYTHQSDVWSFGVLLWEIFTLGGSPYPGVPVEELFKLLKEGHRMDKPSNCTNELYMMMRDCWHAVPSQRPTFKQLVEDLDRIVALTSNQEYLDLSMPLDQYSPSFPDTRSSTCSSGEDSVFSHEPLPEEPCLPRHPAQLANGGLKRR
Conditions: not given
Regarding `CNC(=O)c1cccc2cc(Oc3ccnc(NC(=O)c4ccc(N5C[C@@H](C)N[C@@H](C)C5)cc4C)c3)ccc12`, the concentration for half-maximal inhibition (IC50) came out at 12.9 nM.
Turning to `C=CC(=O)Nc1ccc(C(=O)Nc2cc(Oc3ccc4c(C(=O)NC)cccc4c3)ccn2)cc1`, the IC50 turned out to be 12.8 nM.
`CNC(=O)c1cccc2cc(Oc3ccnc(NC(=O)c4ccc(N5CCNC(C)C5)cc4)c3)ccc12` (configuration not stated): the half-maximal inhibitory concentration (IC50) worked out at 2 nM.
Take `COC(=O)c1cccc2cc(Oc3ccnc(NC(=O)c4ccc(N5C[C@@H](C)N[C@@H](C)C5)cc4)c3)ccc12`: the 50% inhibitory concentration (IC50) came to 4.6 nM.
On to `CNC(=O)c1cccc2cc(Oc3ccnc(NC(=O)c4ccc(OCC5(N)CC5)cc4)c3)ccc12`, for which the IC50 amounted to 7.4 nM.
The same measure, in the same setting: to `CNC(=O)c1cccc2cc(Oc3ccnc(NC(=O)c4ccc(NCC5(O)CCOCC5)cc4)c3)ccc12` belongs 6.2 nM; to `CCNC(=O)Nc1cccc2cc(Oc3ccnc(NC(=O)c4ccc(N5C[C@@H](C)N[C@@H](C)C5)cc4)c3)ccc12`, 67.5 nM; to `CNC(=O)c1cccc2cc(Oc3ccnc(NC(=O)c4ccc(OCCN5CC(F)C5)cc4)c3)ccc12`, 3.6 nM.
With `CNC(=O)c1cccc2cc(Oc3ccnc(NC(=O)c4ccc(N5CCN(CCO)CC5)cc4)c3)ccc12`, the IC50 was found to be 1.9 nM.
As to `CNC(=O)c1cccc2cc(Oc3ccnc(NC(=O)c4ccc(N5CC(C)OC(C)C5)cc4)c3)ccc12` (configuration not stated), the half-maximal inhibitory concentration (IC50) worked out at 1.9 nM.
For the compound `CNC(=O)c1cccc2cc(Oc3ccnc(NC(=O)c4cnn(CCO)c4)c3)ccc12`, the IC50 amounted to 23.5 nM.
On to `CNC(=O)c1cccc2cc(Oc3ccnc(NC(=O)c4ccc(C5CCNCC5)cc4)c3)ccc12`, for which the IC50 is 1.6 nM.
Regarding `CNC(=O)c1cccc2cc(Oc3ccnc(NC(=O)c4cnc(N5C[C@@H](C)N[C@@H](C)C5)nc4)c3)ccc12`, the IC50 was 10.2 nM.
As to `CCNC(=O)Nc1ccc(Oc2ccnc(NC(=O)c3ccc(N4C[C@@H](C)N[C@@H](C)C4)cc3)c2)c(OC)c1`, the concentration for half-maximal inhibition (IC50) is 36.1 nM.

The next data set concerns NCI-H1581. Put plainly: Antiproliferative activity against human NCI-H1581 cells expressing FGFR1 after 72 hrs. Type of data set: functional, cell-based. The note with it: NCI-H1581, 72 h.
`CNC(=O)c1cccc2cc(Oc3ccnc(NC(=O)c4ccc(N5CCN(C)CC5)cc4)c3)ccc12` displayed an IC50 of 22.3 nM.
`COc1cc(CCc2cc(NC(=O)c3ccc(N4C[C@@H](C)N[C@@H](C)C4)cc3)n[nH]2)cc(OC)c1` [FEXAGRATINIB] came in with an IC50 of 40 nM.

Test system in the next data set: not listed separately
Put plainly: AUClast in Sprague-Dawley rat at 1 mg/kg, iv by LC-MS/MS analysis. In kind it is ADME, organism-based. Also on record: dose 1 mg/kg, time 0 - last, route intravenous. The note with it: in vivo.
With `CNC(=O)c1cccc2cc(Oc3ccnc(NC(=O)c4ccc(N5CCN(C)CC5)cc4)c3)ccc12`, the AUC(0-t) was 47.9 ng·h/mL.

Test system in a further data set: not listed separately
Put plainly: Volume of distribution at steady state in Sprague-Dawley rat at 1 mg/kg, iv by LC-MS/MS analysis. The note with it: in vivo, read-out: Vdss. In kind it is ADME, organism-based.
In the case of `CNC(=O)c1cccc2cc(Oc3ccnc(NC(=O)c4ccc(N5CCN(C)CC5)cc4)c3)ccc12`, the Vd was determined as 16.7 L/kg.

Test system in another data set: not listed separately
Put plainly: AUCinfinity in Sprague-Dawley rat at 3 mg/kg, po administered via gavage by LC-MS/MS analysis. In kind it is ADME, organism-based. More on the design: dose 3 mg/kg, time infinity, route oral. The note with it: in vivo.
Compound `CNC(=O)c1cccc2cc(Oc3ccnc(NC(=O)c4ccc(N5CCN(C)CC5)cc4)c3)ccc12` yielded an AUC(0-inf) of 22.7 ng·h/mL.

Test system in a further data set: not listed separately
The data set is described as follows: Half life in Sprague-Dawley rat at 1 mg/kg, iv by LC-MS/MS analysis. Type of data set: ADME, organism-based. The note with it: in vivo.
In the case of `CNC(=O)c1cccc2cc(Oc3ccnc(NC(=O)c4ccc(N5CCN(C)CC5)cc4)c3)ccc12`, the half-life was 0.897 h.

Test system in the next data set: not listed separately
The data set is described as follows: Oral bioavailability in Sprague-Dawley rat at 3 mg/kg administered via gavage by LC-MS/MS analysis. Type of data set: ADME, organism-based. The note with it: in vivo.
In turn, `CNC(=O)c1cccc2cc(Oc3ccnc(NC(=O)c4ccc(N5CCN(C)CC5)cc4)c3)ccc12` gave a bioavailability of 14.9%.

Test system in the next data set: not listed separately
Put plainly: Clearance in Sprague-Dawley rat at 1 mg/kg, iv by LC-MS/MS analysis. In kind it is ADME, organism-based. The conditions noted are these: in vivo.
Regarding `CNC(=O)c1cccc2cc(Oc3ccnc(NC(=O)c4ccc(N5CCN(C)CC5)cc4)c3)ccc12`, the clearance worked out at 346 mL/min/kg.

The next data set addresses Vascular endothelial growth factor receptor 2 (Homo sapiens, UniProt P35968). The data set is described as follows: Inhibition of recombinant VEGFR2 (unknown origin) using poly (Glu, Tyr) 4:1 as substrate after 60 mins by ELISA based spectrophotometric method.
Conditions: not given
With `CNC(=O)c1cccc2cc(Oc3ccnc(NC(=O)c4ccc(N5CCN(C)CC5)cc4)c3)ccc12`, the IC50 stood at 2.9 nM.

Test system in another data set: not listed separately
The data set is described as follows: Half life in Sprague-Dawley rat at 3 mg/kg, po administered via gavage by LC-MS/MS analysis. In kind it is ADME, organism-based. The note with it: in vivo.
Turning to `CNC(=O)c1cccc2cc(Oc3ccnc(NC(=O)c4ccc(N5CCN(C)CC5)cc4)c3)ccc12`, the half-life is 1.85 h.

Another data set concerns the target Fibroblast growth factor receptor 3 (Homo sapiens, UniProt P22607). The data set is described as follows: Inhibition of recombinant FGFR3 (unknown origin) using poly (Glu, Tyr) 4:1 as substrate after 60 mins by ELISA based spectrophotometric method.
Conditions: not given
In the case of `CNC(=O)c1cccc2cc(Oc3ccnc(NC(=O)c4ccc(N5CCN(C)CC5)cc4)c3)ccc12`, the IC50 came out at 10.6 nM.

Test system in a further data set: not listed separately
Put plainly: AUClast in Sprague-Dawley rat at 3 mg/kg, po administered via gavage by LC-MS/MS analysis. Type of data set: ADME, organism-based. More on the design: dose 3 mg/kg, time 0 - last, route oral. The note with it: in vivo.
Regarding `CNC(=O)c1cccc2cc(Oc3ccnc(NC(=O)c4ccc(N5CCN(C)CC5)cc4)c3)ccc12`, the exposure AUC(0-t) was found to be 21.4 ng·h/mL.

For the origin of these results see ChEMBL document CHEMBL4270521, “Design, synthesis and biological evaluation of a series of novel 2-benzamide-4-(6-oxy-N-methyl-1-naphthamide)-pyridine derivatives as potent fibroblast growth factor receptor (FGFR) inhibitors” (Eur J Med Chem, 2018).
